Structures are written as SMILES.

The first test has as its system rabbit skeletal myofibrils (approximately 90% fast fibers). Description: Activation of fast skeletal myofibrils (PUMA coupled-enzyme ATPase assay, AC1.4). The test is classed as biochemical. Conditions: Table 2; concentration at which the compound increased enzymatic activity by 40%; calcium at pCa25.
As to `COc1cccc(Cc2nsc(NCCc3ccc4c(c3)OCO4)n2)c1` [(2-(2H-benzo[d]1,3-dioxolan-5-yl)ethyl){3-[(3-methoxyphenyl)methyl](1,2,4-thiadiazol-5-yl)}amine], the “Mean AC1.4” value is “D (D=>20 uM)”.

With `COc1cccc(Cc2nsc(Nc3ccc(Cl)c(Cl)c3)n2)c1` [(3,4-dichlorophenyl){3-[(3-methoxyphenyl)methyl](1,2,4-thiadiazol-5-yl)}amine], the “Mean AC1.4” value is “D (D=>20 uM)”. Still for that read-out and setting: for `Fc1ccc(Cc2nsc(Nc3ccc(Cl)c(Cl)c3)n2)cc1` [(3,4-dichlorophenyl){3-[(4-fluorophenyl)methyl](1,2,4-thiadiazol-5-yl)}amine] the value was “D (D=>20 uM)”; for `CCc1nsc(NCC(C)(C)c2ccc(F)cc2)n1` [(3-ethyl(1,2,4-thiadiazol-5-yl))[2-(4-fluorophenyl)-2-methylpropyl]amine], “B (B=1-10 uM)”; for `CC(C)(O)/C=C/c1nsc(NCC(C)(C)c2ccc(F)cc2)n1` [(3E)-4-(5-{[2-(4-fluorophenyl)-2-methylpropyl]amino}(1,2,4-thiadiazol-3-yl))-2-methylbut-3-en-2-ol], “B (B=1-10 uM)”. Consider `CC(C)(CNc1nc(CCN2CC[C@@H](O)C2)ns1)c1ccc(F)cc1` [(3R)-1-[2-(5-{[2-(4-fluorophenyl)-2-methylpropyl]amino}(1,2,4-thiadiazol-3-yl))ethyl]pyrrolidin-3-ol], for which the “Mean AC1.4” value is reported as “C (C=10-20 uM)”.

Take `CC(C)(CNc1nc(CCN2CC[C@H](O)C2)ns1)c1ccc(F)cc1` [(3S)-1-[2-(5-{[2-(4-fluorophenyl)-2-methylpropyl]amino}(1,2,4-thiadiazol-3-yl))ethyl]pyrrolidin-3-ol]: the “Mean AC1.4” value is “C (C=10-20 uM)”. Consider `CC(C)(CNc1nc(CN2CC[C@H](O)C2)ns1)c1ccc(F)cc1` [(3S)-1-[(5-{[2-(4-fluorophenyl)-2-methylpropyl]amino}(1,2,4-thiadiazol-3-yl))methyl]pyrrolidin-3-ol], for which the “Mean AC1.4” value is “D (D=>20 uM)”. The same measure, in the same setting: with `COc1cccc(Cc2nsc(Nc3ccc(Cl)cc3)n2)c1` [(4-chlorophenyl){3-[(3-methoxyphenyl)methyl](1,2,4-thiadiazol-5-yl)}amine] the entry was “D (D=>20 uM)”. Consider `Fc1ccc(Cc2nsc(Nc3ccc(Cl)cc3)n2)cc1` [(4-chlorophenyl){3-[(4-fluorophenyl)methyl](1,2,4-thiadiazol-5-yl)}amine], for which the “Mean AC1.4” value is recorded as “D (D=>20 uM)”.

The test is the same for the next values; noted with them: Table 3; concentration at which the compound increased enzymatic activity by 40%; calcium at pCa25.
With `Cn1cc(-c2nnc(NCC3(c4ncccc4F)CCC3)s2)cn1` [N-((1-(3-fluoropyridin-2-yl)cyclobutyl)methyl)-5-(1-methyl-1H-pyrazol-4-yl)-1,3,4-thiadiazol-2-amine], the “Mean AC1.4” value was “D (D=>20 uM)”. In the case of `Cn1nccc1-c1nnc(NCC2(c3ncccc3F)CCC2)s1` [N-((1-(3-fluoropyridin-2-yl)cyclobutyl)methyl)-5-(1-methyl-1H-pyrazol-5-yl)-1,3,4-thiadiazol-2-amine], the “Mean AC1.4” value is “D (D=>20 uM)”.

In the case of `Fc1cccnc1C1(CNc2nnc(-c3nccs3)s2)CCC1` [N-((1-(3-fluoropyridin-2-yl)cyclobutyl)methyl)-5-(thiazol-2-yl)-1,3,4-thiadiazol-2-amine], the “Mean AC1.4” value is listed as “B (B=1-10 uM)”. On the same count and under the same terms, for `Fc1cccnc1C1(CNc2nnc(-c3cscn3)s2)CCC1` [N-((1-(3-fluoropyridin-2-yl)cyclobutyl)methyl)-5-(thiazol-4-yl)-1,3,4-thiadiazol-2-amine] the value was “B (B=1-10 uM)”; for `Fc1cccnc1C1(CNc2nnc(-c3cccs3)s2)CCC1` [N-((1-(3-fluoropyridin-2-yl)cyclobutyl)methyl)-5-(thiophen-2-yl)-1,3,4-thiadiazol-2-amine], “B (B=1-10 uM)”.

On to `Cc1ccccc1-c1nnc(NCC2(c3ncccc3F)CCC2)s1` [N-((1-(3-fluoropyridin-2-yl)cyclobutyl)methyl)-5-o-tolyl-1,3,4-thiadiazol-2-amine], for which the “Mean AC1.4” value was “B (B=1-10 uM)”.

The test is the same for the next values; noted with them: Table 4; concentration at which the compound increased enzymatic activity by 40%; calcium at pCa25.
For the molecule `CC(C)(CNc1nc2ccc(Cl)cc2s1)c1ccc(F)cc1` [6-chloro-N-(2-(4-fluorophenyl)-2-methylpropyl)benzo[d]thiazol-2-amine], the “Mean AC1.4” value is on record as “A (A=<1 uM)”. Same read-out and setting: with `Fc1cccnc1C1(CNc2nc3ccc(Cl)cc3s2)CCC1` [6-chloro-N-((1-(3-fluoropyridin-2-yl)cyclobutyl)methyl)benzo[d] thiazol-2-amine] the entry was “B (B=1-10 uM)”; with `COc1cccnc1C1(CNc2nc3ccc(Cl)cc3s2)CCC1` [6-chloro-N-((1-(3-methoxypyridin-2-yl)cyclobutyl)methyl)benzo[d] thiazol-2-amine], “B (B=1-10 uM)”; with `Fc1ccc(C2(CNc3nc4ccc(Cl)cc4s3)CCC2)cc1` [6-chloro-N-((1-(4-fluorophenyl)cyclobutyl)methyl) benzo[d]thiazol-2-amine], “A (A=<1 uM)”. On the same count and under the same terms, for `COc1ccc(C2(CNc3nc4ccc(Cl)cc4s3)CCC2)nc1` [6-chloro-N-((1-(5-methoxypyridin-2-yl)cyclobutyl)methyl)benzo[d] thiazol-2-amine] the value was “B (B=1-10 uM)”; for `Clc1ccc2nc(NCC3(c4ccccn4)CCC3)sc2c1` [6-chloro-N-((1-(pyridin-2-yl)cyclobutyl)methyl)benzo[d] thiazol-2-amine], “B (B=1-10 uM)”. As for `CC(C)(CNc1nc2cccc(Cl)c2s1)c1ccc(F)cc1` [7-chloro-N-(2-(4-fluorophenyl)-2-methylpropyl)benzo[d]thiazol-2-amine], the “Mean AC1.4” value is “B (B=1-10 uM)”. `COc1ccc2nc(NCC(C)(C)c3ccc(F)cc3)sc2c1` [N-(2-(4-fluorophenyl)-2-methylpropyl)-6-methoxybenzo[d]thiazol-2-amine]: the “Mean AC1.4” value is recorded as “A (A=<1 uM)”. With `CC(C)(CNc1nc2ccccc2s1)c1ccc(F)cc1` [N-(2-(4-fluorophenyl)-2-methylpropyl)benzo[d]thiazol-2-amine], the “Mean AC1.4” value is reported as “B (B=1-10 uM)”.

Still in this test, the particulars now being: Table 5; concentration at which the compound increased enzymatic activity by 40%; calcium at pCa25.
On to `CC(C)(CNc1nc(-c2cccnc2)no1)c1ccc(F)cc1` [N-(2-(4-fluorophenyl)-2-methylpropyl)-3-(pyridin-3-yl)-1,2,4-oxadiazol-5-amine], for which the “Mean AC1.4” value is “C (C=10-20 uM)”. Still for that read-out and setting: for `Fc1cccnc1C1(CNc2cnn(-c3ccccc3)c2)CCC1` [N-((1-(3-fluoropyridin-2-yl)cyclobutyl)methyl)-1-phenyl-1H-pyrazol-4-amine] the value was “D (D=>20 uM)”; for `Fc1cccnc1C1(CNc2cnc(-c3ccccc3)s2)CCC1` [N-((1-(3-fluoropyridin-2-yl)cyclobutyl)methyl)-2-phenylthiazol-5-amine], “D (D=>20 uM)”; for `Cc1nc(NCC2(c3ncccc3F)CCC2)sc1-c1ccccc1` [N-((1-(3-fluoropyridin-2-yl)cyclobutyl)methyl)-4-methyl-5-phenylthiazol-2-amine], “A (A=<1 uM)”.

For `Fc1cccnc1C1(CNc2nc(-c3ccccc3)co2)CCC1` [N-((1-(3-fluoropyridin-2-yl)cyclobutyl)methyl)-4-phenyloxazol-2-amine], the “Mean AC1.4” value was “D (D=>20 uM)”. As to `Fc1cccnc1C1(CNc2nc(-c3ccccc3)cs2)CCC1` [N-((1-(3-fluoropyridin-2-yl)cyclobutyl)methyl)-4-phenylthiazol-2-amine], the “Mean AC1.4” value is recorded as “B (B=1-10 uM)”.

(Values after US9278962B2 (Cytokinetics, Inc., priority 2011, dated 2016).)
